US20050282910A1, “Methods of application of chemical compounds having therapeutic activities in treating cancers” (priority 2003, published 2005)
Each block holds one molecule with its values, some of them ahead of it.

Experiments:
HL60/adr = assay: Reversal of MRP1-mediated drug resistance, MTT cytotoxicity of anticancer agents; type: cell-based, human; conditions: for IC50 (ng/ml) +Schisandrin B: anticancer agent in the presence of Schisandrin B (10 μg/ml); for RF (reversal folds of drug resistance): by Schisandrin B (10 μg/ml); for drug sensitivity of HL60/adr toward the anticancer agents (in words): compound 10 μg/ml
Experimental: Assays were carried out in triplicate against MDR cancer cell HL60/adr. MTT assays as described previously (X.

MRP1 = target: T1, MRP1 (Homo sapiens, UniProt P33527); assay: Daunorubicin accumulation in HL60/adr cells (MRP1-mediated drug efflux), flow cytometry; type: cell-based; conditions: 2 μg/ml daunorubicin
T1 construct: human cancer cell line HL60/adr, an MDR cell line characterized by MRP1 overexpression; endogenous in cells; host or cells: HL60/adr (human MDR cancer cell line)
T1 sequence (P33527 whole entry): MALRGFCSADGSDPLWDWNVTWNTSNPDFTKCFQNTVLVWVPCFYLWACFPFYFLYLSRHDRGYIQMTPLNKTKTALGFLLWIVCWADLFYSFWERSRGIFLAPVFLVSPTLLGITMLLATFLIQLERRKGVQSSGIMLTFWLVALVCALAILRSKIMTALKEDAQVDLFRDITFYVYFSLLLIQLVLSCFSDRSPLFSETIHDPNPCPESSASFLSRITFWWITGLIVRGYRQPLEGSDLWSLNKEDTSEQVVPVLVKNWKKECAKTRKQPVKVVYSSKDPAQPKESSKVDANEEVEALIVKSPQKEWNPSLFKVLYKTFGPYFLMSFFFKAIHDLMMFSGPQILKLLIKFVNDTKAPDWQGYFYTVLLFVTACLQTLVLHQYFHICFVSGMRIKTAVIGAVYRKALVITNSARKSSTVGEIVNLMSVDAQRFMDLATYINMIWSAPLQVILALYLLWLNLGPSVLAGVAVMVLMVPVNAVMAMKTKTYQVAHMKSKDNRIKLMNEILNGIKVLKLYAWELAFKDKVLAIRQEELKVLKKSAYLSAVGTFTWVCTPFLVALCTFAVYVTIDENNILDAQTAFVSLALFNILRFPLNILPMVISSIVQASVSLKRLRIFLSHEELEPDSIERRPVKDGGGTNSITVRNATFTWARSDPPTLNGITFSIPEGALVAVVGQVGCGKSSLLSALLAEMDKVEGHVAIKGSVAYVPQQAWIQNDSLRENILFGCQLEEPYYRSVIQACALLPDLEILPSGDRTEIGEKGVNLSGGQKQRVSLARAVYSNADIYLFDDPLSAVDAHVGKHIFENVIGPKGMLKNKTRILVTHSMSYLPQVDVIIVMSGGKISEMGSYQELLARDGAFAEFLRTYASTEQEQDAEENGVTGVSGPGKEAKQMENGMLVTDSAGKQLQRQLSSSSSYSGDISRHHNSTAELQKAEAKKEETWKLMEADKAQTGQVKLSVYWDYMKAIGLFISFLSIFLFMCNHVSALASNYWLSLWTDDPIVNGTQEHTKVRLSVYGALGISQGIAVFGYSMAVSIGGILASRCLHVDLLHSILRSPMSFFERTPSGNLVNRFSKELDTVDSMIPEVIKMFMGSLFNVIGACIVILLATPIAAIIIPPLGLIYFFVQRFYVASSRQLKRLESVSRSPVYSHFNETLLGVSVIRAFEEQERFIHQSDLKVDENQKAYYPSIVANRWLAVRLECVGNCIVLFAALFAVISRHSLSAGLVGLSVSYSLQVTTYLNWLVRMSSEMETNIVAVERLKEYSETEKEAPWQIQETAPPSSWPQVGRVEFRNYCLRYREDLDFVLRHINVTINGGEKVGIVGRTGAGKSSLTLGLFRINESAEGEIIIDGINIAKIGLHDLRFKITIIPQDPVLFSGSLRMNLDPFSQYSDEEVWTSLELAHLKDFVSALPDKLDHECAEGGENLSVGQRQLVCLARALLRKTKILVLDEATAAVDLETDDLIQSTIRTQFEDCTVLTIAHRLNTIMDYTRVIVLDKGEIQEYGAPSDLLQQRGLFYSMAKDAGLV
Description: MRP1 functions as a drug pump that unilaterally pumps the anticancer agents out of MDR cancer cells. Inhibition of MRP1 results in an increase of intracellular drug concentration within cancer cells.

[1] = tested on: human leukemia MDR cell line K562/adr; assay: Reversal of P-glycoprotein-mediated drug resistance by Schisandrin A, Schisandrol A, Schisantherin A, MTT cytotoxicity of anticancer agents; type: cell-based; conditions: FIG. 3
Experimental: Assays were carried out in triplicate against human leukemia MDR cell line K562/adr, human breast cancer MDR cell line MCF7/adr, and human epidermoid carcinoma MDR cell line KBv200.

SMMC7721 = assay: Enhancement of anticancer agent-induced apoptosis and necrosis, Anexin V-FITC/PI; type: cell-based, human; conditions: 48 hours
Experimental: (§1) To illustrate the activities of Schisandrin B or its analogs enhancing the apoptosis of cancer cells induced by an anticancer agent according to the present disclosure, human cancer cell line SMMC7721, a non-drug-resistant hepatic cancer cell line, and MCF7, a non-drug-resistant breast cancer cell line, were selected for use. Assays were carried out in triplicates against SMMC7721 or MCF7. […] Cells were collected and the apoptotic cells and necrotic cell percentages were determined using Anexin V-FITC/PI kit (Sigma, St. Louis, Mo., USA) according to manufacturer's instructions. Alternatively, the apoptotic and necrotic cell percentages were measured using DNA Plus kit (Becton-Dickinson, USA) according to the manufacturer's instructions.

MCF7 = assay: as above; type: cell-based, human; conditions: 48 hours
Experimental: as §1

[2] = SMMC7721, doxorubicin 0.5 μg/ml, Schisandrin B 20 μg/ml
[3] = Schisandrin B 20 μg/ml with doxorubicin 0.5 μg/ml

SMILES: COc1cc([C@@H]2c3cc4c(cc3[C@@H](O[C@@H]3O[C@@H]5CO[C@@H](C)O[C@H]5[C@H](O)[C@H]3O)[C@H]3COC(=O)[C@H]23)OCO4)cc(OC)c1O [VP-16]
- IC50 (ng/ml) −Schisandrin B (HL60/adr; HL60/adr, anticancer agent in the absence of Schisandrin B, 72 hours): >10000 ng/mL
- IC50 (ng/ml) +Schisandrin B (HL60/adr; HL60/adr, 72 hours): 1490 ± 213 ng/mL
- RF (reversal folds of drug resistance) (HL60/adr; HL60/adr): >6.7

SMILES: COc1cc2c(c(OC)c1OC)-c1c(cc(OC)c(OC)c1OC)C[C@H](C)[C@H](C)C2 [Schisandrin A]
- daunorubicin accumulation within HL60/adr cells (in words) (MRP1; 60 minutes, FIG. 7): increased with the increasing concentration
- sensitivity of MDR cancer cell K562/adr to daunorubicin (in words) [1]: increase the sensitivity
- increase of sensitivity of K562/adr to daunorubicin ([1]; Schisandrin A 1 μg/ml): about 8 folds
- increase of sensitivity of K562/adr to daunorubicin ([1]; Schisandrin A 10 μg/ml): ~71 folds
- increase of sensitivity of K562/adr to daunorubicin ([1]; Schisandrin A 20 μg/ml): ~100 folds
- drug sensitivity of HL60/adr toward the anticancer agents (in words) (HL60/adr): enhanced

SMILES: O=C1c2c(O)ccc(O)c2C(=O)c2c(NCCNCCO)ccc(NCCNCCO)c21 [Mitoxantrone]
- IC50 (ng/ml) +Schisandrin B (HL60/adr; HL60/adr, 72 hours): <1 ng/mL
- RF (reversal folds of drug resistance) (HL60/adr; HL60/adr): >68
- IC50 (HL60/adr; Homo sapiens, HL60/ADR, 72 h, HL60/adr, anticancer agent in the absence of Schisandrin B, 72 hours, read-out: IC50 (ng/ml) −Schisandrin B): 68 ng/mL

- daunorubicin accumulation in HL60/adr cells versus absence of Schisandrin B (MRP1; Schisandrin B 20 μg/ml, 90 minutes, FIG. 6): 4 folds
SMILES: COc1cc2c(c(OC)c1OC)-c1c(cc3c(c1OC)OCO3)C[C@@H](C)[C@@H](C)C2 [Schisandrin B]
- daunorubicin accumulation within HL60/adr cells (in words) (MRP1; 90 minutes, FIG. 6): increased proportionately with increasing concentration
- Apoptotic(%) (SMMC7721; [2]): 2.4 ± 2.1%
- Necrotic(%) (SMMC7721; [2]): 1.5 ± 0.9%
- Apoptotic + necrotic (%) (SMMC7721; SMMC7721, vincristine 0.5 μg/ml, Schisandrin B 20 μg/ml): 2.6 ± 0.4%
- apoptosis and necrosis of SMMC7721 cells induced by doxorubicin (in words) (SMMC7721; [3]): significantly enhanced
- apoptosis and necrosis of SMMC7721 induced by vincristine (in words) (SMMC7721; Schisandrin B 20 μg/ml with vincristine 0.5 μg/ml): significantly enhanced
- Apoptotic + necrotic (%) (MCF7; MCF7, doxorubicin 0.5 μg/ml, Schisandrin B 20 μg/ml): 1.9 ± 0.1%
- apoptosis and necrosis of MCF7 induced by doxorubicin (in words) (MCF7; [3]): significantly enhanced
- RF (reversal folds of vincristine resistance) (HL60/adr; HL60/adr, Schisandrin B 10 μg/ml): ~10.5
- RF (reversal folds of vincristine resistance) (HL60/adr; HL60/adr, Schisandrin B 20 μg/ml): >42
- drug sensitivity of HL60/adr toward the anticancer agents (in words) (HL60/adr): enhanced
